# Source: US9284303B2, “Benzimidazole cannabinoid agonists bearing a substituted heterocyclic group” (priority 2006, dated 2016)
# Like-named read-outs stand apart in the source and are kept apart here.
# Key:
# [1] = target: T1, human CB2 (hCB2) receptor (Homo sapiens, UniProt P34972); assay: Inhibition of forskolin-activated cAMP production upon activation of hCB2 (HTRF), CHO-K1 cells; assay type: cell-based; conditions: for ratio CB2 agonism over CB1 agonism: Table C-1, selectivity hCB2 over hCB1; for ratio CB2 over CB1 agonism: Table C-3, comparison of art compounds A to E with compounds of the invention; for EC50: forskolin-activated cAMP, pEC50=-log(EC50)
# T1 construct: expressed in transfected cells; host or cells: CHO-K1
# Method: (§1) Functional activity of the test compounds was assessed by measuring their potency to inhibit forskolin-activated cAMP production upon activation of the human CB1 (hCB1) or human CB2 (hCB2) receptor through homogenous time resolved fluorescence (HTRF) assays.
# (§2) Before the experiments, medium was removed, cells were washed with PBS/EDTA (140 mM NaCl, 1 mM Naz-EDTA, 8 mM Na2HPO4.2H2O, 8.5 mM KH2PO4, 2.7 mM KCl, 21 mM glucose), resuspended in stimulation buffer (HBSS 1x, IBMX 1 mM, Hepes 5 mM, MgCl2 10 mM, BSA 0.1%, pH 7.4). Cells were diluted to a concentration of 8.10^5 cell/ml for hCB1 experiments and 10^6 cells/ml for hCB2 experiments. Assays were performed using the cAMP Dynamic HTRF kit (CIS bio international, France) according to the recommendations of the manufacturer.
# Then, 20 μl of the diluted hCB2-CHO-K1 cells was added (20,000 cells/well). After 30 minutes incubation in dark at room temperature, 10 μl cAMP-XL665 and 10 μl anti-cAMP cryptate (both at a final dilution of 1/100) was added to the cells.
# [2] = target: T2, human CB1 (hCB1) receptor (Homo sapiens, UniProt P21554); assay: Inhibition of forskolin-activated cAMP production upon activation of hCB1 (HTRF), CHO-K1 cells; assay type: cell-based; conditions: CB1 pEC50, hCB1-CHO-K1 cells, forskolin-activated cAMP, pEC50=-log(EC50)
# T2 construct: expressed in transfected cells; host or cells: CHO-K1
# Method: as §1
# as §2, with “CHO-K1 cells stably transfected with either hCB1 or hCB2 were grown up to 80-90% confluence in T175 Falcon flasks in DMEM/NUT MIX F-12 culture medium complemented with 2% Solution A (5.10^6 IU/l penicillin G, 5 g/l streptomycin sulphate, 5.5 g/l pyruvate, 14.6 g/l L-glutamine, 1M NaOH) and 10% foetal calf serum. Before” for “Before”
# For CB1, each well of a 96 flat bottom black polystyrene assay plate (Costar) was filled with 25 μl stimulation buffer containing 6 μM forskolin and either test compound (in 2% DMSO), 2% DMSO or 2 μM CP55490 (in 2% DMSO). Then, 25 μl of the diluted cells was added (20,000 cells/well). After 30 minutes incubation in dark at room temperature, 25 μl cAMP-XL665 and 25 μl anti-cAMP cryptate (both at a final dilution of 1/80) was added to the cells.
# After equilibration of the reaction mixtures for 1 to 24 hours in dark at room temperature, fluorescence was measured at 665 nm and 620 nm using a Discovery microplate fluorescence counter (Perkin Elmer), and the signal ratio of 665 nm/620 nm was calculated. The signal ratios of the test compounds were expressed relative to the signal ratios of the DMSO control (maximal signal ratio, no inhibition of cAMP) and CP55490 or WIN55212-2 for hCB1 and hCB2, respectively (minimal signal ratio, maximal inhibition of cAMP). From the dose response curves generated for each test compound, the dose at which 50% of the maximal inhibition of cAMP level is observed (EC50, expressed in the Tables as pEC50=−log(EC50) values) and the level of inhibition reached with 10 μM of the test compound compared to CP55490 (for hCB1) or WIN55212-2 (for hCB2) was calculated.
# [3] = hCB2-CHO-K1 cells, read-out: CB2 pEC50 (converted)
# T2 sequence (P21554 whole entry): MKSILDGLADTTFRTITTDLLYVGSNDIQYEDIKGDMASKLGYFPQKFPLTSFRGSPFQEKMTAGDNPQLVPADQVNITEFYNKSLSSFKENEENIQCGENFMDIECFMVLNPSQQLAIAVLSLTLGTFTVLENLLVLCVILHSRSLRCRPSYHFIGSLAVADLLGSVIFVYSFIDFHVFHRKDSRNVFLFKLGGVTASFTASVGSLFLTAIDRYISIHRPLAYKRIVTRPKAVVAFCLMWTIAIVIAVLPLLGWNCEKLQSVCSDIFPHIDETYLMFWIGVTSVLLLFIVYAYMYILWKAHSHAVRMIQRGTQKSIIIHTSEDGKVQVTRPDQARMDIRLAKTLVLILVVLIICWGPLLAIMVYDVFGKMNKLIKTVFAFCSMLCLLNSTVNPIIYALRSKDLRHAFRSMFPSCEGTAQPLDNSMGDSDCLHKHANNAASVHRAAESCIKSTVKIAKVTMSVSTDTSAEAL
# T1 sequence (P34972 whole entry): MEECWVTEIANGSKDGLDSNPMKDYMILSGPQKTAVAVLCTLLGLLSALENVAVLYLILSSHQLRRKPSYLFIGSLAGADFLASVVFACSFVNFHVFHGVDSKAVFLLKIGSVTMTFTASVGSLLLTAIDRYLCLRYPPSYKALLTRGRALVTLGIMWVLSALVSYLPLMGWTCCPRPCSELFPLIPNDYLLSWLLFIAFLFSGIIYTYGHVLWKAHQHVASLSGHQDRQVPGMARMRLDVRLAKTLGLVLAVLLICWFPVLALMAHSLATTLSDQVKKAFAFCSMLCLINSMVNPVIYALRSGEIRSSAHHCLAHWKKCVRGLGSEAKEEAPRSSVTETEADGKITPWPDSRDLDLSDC
smiles,measurement,setting,value
CC(C)(C)c1nc2cc(S(=O)(=O)c3ccc(S(C)(=O)=O)o3)ccc2n1CC1CCOCC1 [Co. No. 20],ratio CB2 agonism over CB1 agonism,[1],347
same,ratio CB2 over CB1 agonism,[1],346
same,EC50,[1]; [3],1.26 nM
same,EC50,[2],437 nM
same,melting point,,165.2 °C
CC(C)(C)c1nc2cc(S(=O)(=O)c3ccc(-c4ncon4)s3)ccc2n1CC1CCOCC1 [Co. No. 48],ratio CB2 agonism over CB1 agonism,[1],347
same,EC50,[1]; [3],0.575 nM
same,EC50,[2],200 nM
same,melting point,,199 °C
CC(C)(C)c1nc2cc(S(=O)(=O)c3cc[n+]([O-])cc3)ccc2n1CC1CCOCC1 [Co. No. 3],EC50,[1]; [3],1.74 nM
same,EC50,[2],692 nM
same,melting point,,203 °C
CC(C)(C)c1nc2cc(S(=O)(=O)c3ccc(=O)[nH]n3)ccc2n1CC1CCOCC1 [Co. No. 94],ratio CB2 agonism over CB1 agonism,[1],1059
same,EC50,[1]; [3],2.51 nM
same,EC50,[2],2690 nM
same,melting point,,218.3 °C
CC(C)(C)c1nc2cc(S(=O)(=O)c3ccn(/C(F)=C/I)c(=O)c3)ccc2n1CC1CCOCC1 [Co. No. 90],ratio CB2 agonism over CB1 agonism,[1],>3715
same,EC50,[1]; [3],2.69 nM
same,EC50,[2],> 10000 nM
same,melting point,,113.9 °C
CC(C)(C)c1nc2cc(S(=O)(=O)c3ccc(C(N)=O)o3)ccc2n1CC1CCOCC1 [Co. No. 12],ratio CB2 agonism over CB1 agonism,[1],302
same,ratio CB2 over CB1 agonism,[1],302
same,EC50,[1]; [3],1.55 nM
same,EC50,[2],468 nM
same,melting point,,234.8 °C
CC(C)(C)c1nc2cc(S(=O)(=O)c3ccc(C(N)=O)s3)ccc2n1CC1CCOCC1 [Co. No. 73],ratio CB2 agonism over CB1 agonism,[1],84
same,EC50,[1]; [3],1.38 nM
same,EC50,[2],117 nM
same,melting point,,209.4 °C
CC(C)(C)c1nc2cc(S(=O)(=O)c3ccnc(F)c3)ccc2n1CC1CCC(=O)CC1 [Co. No. 134],ratio CB2 agonism over CB1 agonism,[1],2786
same,EC50,[1]; [3],1.38 nM
same,EC50,[2],3800 nM
same,melting point,,164.8 °C
COc1ccc(S(=O)(=O)c2ccc3c(c2)nc(C(C)(C)C#N)n3CC2CCOCC2)nn1 [Co. No. 92],ratio CB2 agonism over CB1 agonism,[1],437
same,EC50,[1]; [3],6.92 nM
same,EC50,[2],2950 nM
same,melting point,,161.1 °C
Cc1cc(S(=O)(=O)c2ccc3c(c2)nc(CC(C)(C)C)n3CC2CCOCC2)cc[n+]1[O-] [Co. No. 102],EC50,[1]; [3],5.01 nM
same,EC50,[2],9120 nM
same,melting point,,231.7 °C
CC1(C)CC(Cn2c(C(C)(C)C)nc3cc(S(=O)(=O)c4ccnc(F)c4)ccc32)CCO1 (centres unmarked) [Co. No. 149],ratio CB2 agonism over CB1 agonism,[1],>8035
same,EC50,[1]; [3],1.26 nM
same,EC50,[2],> 10000 nM
same,melting point,,159.4 °C
CC(C)(C)c1nc2cc(S(=O)(=O)c3ccc(C(=O)N4CCOCC4)s3)ccc2n1CC1CCOCC1 [Co. No. 79],ratio CB2 agonism over CB1 agonism,[1],543
same,EC50,[1]; [3],2.95 nM
same,EC50,[2],1580 nM
same,melting point,,184.6 °C
CC(C)(C)c1nc2cc(S(=O)(=O)c3ccnc(F)c3)ccc2n1CC1CCS(=O)(=O)CC1 [Co. No. 133],ratio CB2 agonism over CB1 agonism,[1],>2512
same,EC50,[1]; [3],3.98 nM
same,EC50,[2],> 10000 nM
same,melting point,,220.8 °C
CC(C)(C)c1nc2cc(S(=O)(=O)c3coc(C(F)(F)F)c3)ccc2n1CC1CCOCC1 [Co. No. 106],ratio CB2 agonism over CB1 agonism,[1],432
same,EC50,[1]; [3],0.724 nM
same,EC50,[2],316 nM
same,melting point,,168 to 169.5 °C
Cc1nccc(S(=O)(=O)c2ccc3c(c2)nc(C(C)(C)C)n3CC2CCOCC2)n1 [Co. No. 107],ratio CB2 agonism over CB1 agonism,[1],646
same,EC50,[1]; [3],2.4 nM
same,EC50,[2],1550 nM
same,melting point,,179.7 °C
CC(O)c1ccc(S(=O)(=O)c2ccc3c(c2)nc(C(C)(C)C)n3CC2CCOCC2)nc1 (centres unmarked) [Co. No. 42],EC50,"[1]; CB2 pEC50, hCB2-CHO-K1 cells",0.631 nM
same,EC50,[1]; [3],3.98 nM
same,melting point,,177 to 179 °C
CC(C)(C)c1nc2cc(S(=O)(=O)c3cc[n+]([O-])cc3C(F)(F)F)ccc2n1CC1CCOCC1 [Co. No. 21],EC50,[1]; [3],3.8 nM
same,melting point,,205.8 °C
CC(C)(C)c1nc2cc(S(=O)(=O)c3ccn(/C(F)=C\I)c(=O)c3)ccc2n1CC1CCOCC1 [Co. No. 91],ratio CB2 agonism over CB1 agonism,[1],1995
same,EC50,[1]; [3],5.01 nM
same,melting point,,164.4 °C
